What was measured:
134 cancer cell lines = experiment: Cell viability assay (ATPlite, 72 hours), IC50 on cancer cell line panel; settings: 134 cell line panel
AP-1060 (ETV6-NTRK3) = experiment: Cell viability assay; settings: read-out: IC50 in cell proliferation assay

`C=CC(=O)Nc1cc(Nc2nccc(-c3cn(C)c4ccccc34)n2)c(OC)cc1N(C)CCN(C)C` [osimertinib] was tested. Which “lower IC50 of the most sensitive cell line compared to the panel average” value (134 cancer cell lines) did it give?
Its value is “around 300 fold”.

What about the IC50 (AP-1060 (ETV6-NTRK3)) of the same compound?
The IC50 was 1940 nM.

Reference: paper PMC9516332 (Frontiers in Oncology, 2022)
